According to US9241976B2, “Use of HDL-related molecules to treat and prevent proinflammatory conditions” (THE REGENTS OF THE UNIVERSITY OF CALIFORNIA, priority 2011, dated 2016):

Legend:
ERK1/2 = assay: Insulin-stimulated phosphorylation of ERK1/2 in OV2008 cells, Western blot; format: cell-based, human; details: 10 μg/ml, insulin 200 nM
Protocol: (§1) FIGS. 10A-10B. Effect of L-4F on the insulin-stimulated activation of downstream signaling molecules in OV2008 cells. After an overnight starvation, OV2008 cells were treated with L-4F (10 μg/ml) for 1 h, and insulin was added at a final concentration of 200 nM. Cell lysates were collected at various time points and subjected to Western blot analysis. FIG. 10A, L-4F inhibits insulin-stimulated phosphorylation of p70s6 kinase and subsequent HIF-1α expression in OV2008 cells. FIG. 10B, effect of L-4F on insulinstimulated phosphorylation of ERK1/2 and Akt in OV2008 cells.
(§2) Western blot analyses were performed as described previously (Gao et al., 2011). In brief, cell lysates were collected in a lysis buffer containing 0.1 MNaCl, 5 mM EDTA, 50 μM sodium orthovanadate, 1% Triton X-100, and protease inhibitor tablet (Roche Diagnostics, Indianapolis, Ind.) in 50 mM Tris buffer, pH 7.5, loaded onto 4 to 12% Bis-Tris gel (Invitrogen), transferred to polyvinylidene difluoride membrane, and incubated with the appropriate antibodies. […]

HIF-1α = HIF-1α protein stability with cycloheximide in OV2008 cells; format: cell-based, human; details: insulin 200 nM, CHX 20 μg/ml, L-4F 10 μg/ml
Protocol: FIGS. 11A-11B. Effect of L-4F on HIF-1α protein stability in OV2008 cells. FIG. 11A, left, pretreatment of L-4F promotes HIF-1α degradation in OV2008 cells. After an overnight starvation, OV2008 cells were treated with insulin (200 nM) for 3 h, L-4F (10 μg/ml) for 1 h, and CHX (20 μg/ml) for various durations. Cell lysates were collected and subjected to Western blot analysis. […] Right, L-4F treatment promotes HIF-1α degradation in OV2008 cells. After an overnight starvation, OV2008 cells were treated with insulin (200 nM) for 3 h and then treated with L-4F (10 μg/ml) and CHX (20 μg/ml) at the same time. Cell lysates were collected at various time points and subjected to Western blot analysis. […] FIG. 11B, effect of pretreatment of L-4F on proteasome-mediated degradation of HIF-1α in insulin-treated OV2008 cells. After an overnight starvation, OV2008 cells were treated with MG-132 (10 μM) for 3 h, L-4F (10 μg/ml) for 1 h, and insulin (200 nM) for an additional 4 h. Cell lysates were collected and subjected to Western blot analysis.
Western blot analyses were performed as described previously (Gao et al., 2011). […]

p70s6 kinase = assay: Insulin-stimulated phosphorylation of S6 kinase in OV2008 cells, Western blot; format: cell-based, human; details: 10 μg/ml, insulin 200 nM
Protocol: as §1, §2

LPA = LPA levels in CT26 cell culture medium; format: cell-based, mouse; details: CT26 cells; 48 hours; vs control medium
Protocol: FIGS. 17A-17B. HDL mimetic, L-4F inhibits LPA induced viability of CT26 cells and reduces LPA levels in cell culture medium. FIG. 17A, CT26 cells were cultured as described in Example 5 and incubated with either L-4F at 10 mg/mL or LPA at a concentration 5, 10, […], or cells were treated with both L-4F and LPA for 48 hours. All experiments were conducted in triplicate and each assay was carried out in quadruplicates. Data are represented as the mean±SD of the percent of control cells. FIG. 17B, LPA levels were measured in the cell culture medium after 48 hours of treatment.
LPA (20:4) was purchased from Avanti Polar Lipids. LPA levels were determined as described previously (19).
LPA has been identified as an important mediator of tumor development, progression, and metastases in humans (26, 27). We have previously shown that apoAI mimetic peptides inhibit LPA-induced viability of ID8 cells and reduce serum LPA levels in mice injected with ID8 cells (17). […] LPA 20:4 and 18:1 were not detectable in cell culture medium (FIG. 17B).

CT26 cells = assay: Pulmonary metastasis in vivo: CT26 lung tumors in BALB/c mice; set-up: species or system mouse; details: CT26 via tail vein
Protocol: BALB/c mice were intravenously injected with 2×10^4 CT26 cells in 100 μL of PBS via tail vein injection and the mice were treated with bHDL at 10 mg/kg/day administered SQ for 3 weeks; or treated with bHDL at 100 mg/kg/day administered in a chow diet for 3 weeks. After 3 weeks treatment, the mice were sacrificed; lungs were harvested, weighed and fixed with Bouin's solution (Sigma). Tumor nodules on the lung surface were counted.
BALB/c mice were intravenously injected with 2×10^4 CT26 cells in […] of PBS via tail vein injection and the mice were treated with L-4F or sc-4F at 10 mg/kg/d administered subcutaneously for 3 weeks, or treated with sc-4F or L-4F or G* peptide at 100 mg/kg/d administered in a chow diet for 3 weeks. After 3 weeks treatment, the mice were sacrificed; lungs were harvested, weighed, and fixed with Bouin solution (Sigma). Tumor nodules on the lung surface were counted.

[1] = 10 mg/kg/d subcutaneously for 3 weeks
[2] = 100 mg/kg/d in chow diet for 3 weeks

## Ac-DWFKAFYDKVAEKFKEAF-NH2 [L-4F, Ac-D-W-F-K-A-F-Y-D-K-V-A-E-K-F-K-E-A-F-NH2]
ERK1/2
  insulin-stimulated activation of ERK1/2: inhibited activation
HIF-1α
  degradation of HIF-1α protein: accelerated the degradation
p70s6 kinase
  insulin-stimulated phosphorylation of S6 kinase: prevented phosphorylation
LPA
  LPA 16:0 and 18:0 levels in cell culture medium: significantly decreased
CT26 cells; [1]
  lung weights: 225 mg
  tumor numbers counted on the lung surface: 18
CT26 cells; [2]
  lung weights: 238 mg
  tumor numbers on the lung surface: 12
